From the supplement of paper PMC11208160

assay: recombinant UMI read abundance after kanamycin selection (control-corrected) (log10(CPM+1)); higher = more efficient recombination; extreme values may be limits of the assay; sequences stand for … in AGTGCAGAGAAAATCGGCCAGTTTTCTCTGCCTGCAGTCCGCATGCCGTGGGACCCCTTGGGTTCTAACCTGTTGCCTAGATTTATGCAGCGGACTGCCTTTCTCCCAAAGTGATAAACCGG…AGGTTGGTTTCACT; site = the 11-nt donor
Method in brief: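 Pooled Escherichia coli screen of donor and donor-binding-loop pairs for the IS621 bridge recombinase. Each pair sits with a 12-nt UMI on a plasmid carrying a promoterless kanamycin gene. The library was co-electroporated with a target plasmid encoding a fixed target and T7-inducible recombinase, then plated with IPTG (0.07 mM) plus kanamycin, or unselected, each in two replicates. Recombinant UMIs were PCR-amplified across the donor–target junction and sequenced. Counts became CPM, averaged over replicates, scaled by control-derived factors and reported as log10(CPM+1).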
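Also: IS621 bridge recombinase in Escherichia coli cells against a fixed T5 target plasmid.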

Point of comparison: “GTTAGAACATGGACCGGTTTTCCCGGTAATCCGTATTTGGC (site GTTAGACCTGC)”, “recombinant UMI read abundance (log10)” value 0. Against it:
- GTTAGAACATGGACCGGTTTTCCCGGTAATCCGTATTTGGC (site GTTAGAACTAC) — within 0.2 log units, 0.00468
- GTTAGAACATGGACCGGTTTTCCCGGTAATCCGTATTTGGC (site GTTAGAACTCC) — within 0.2 log units, 0.0522
- GTTAGAACATGGACCGGTTTTCCCGGTAATCCGTATTTGGC (site GTTAGAACTGA) — the same, 0
- GTTAGAACATGGACCGGTTTTCCCGGTAATCCGTATTTGGC (site GTTAGAACTGC) — higher, 1.59
- GTTAGAACATGGACCGGTTTTCCCGGTAATCCGTATTTGGC (site GTTAGAACTGG) — the same, 0
- GTTAGAACATGGACCGGTTTTCCCGGTAATCCGTATTTGGC (site GTTAGAACTGT) — the same, 0
- GTTAGAACATGGACCGGTTTTCCCGGTAATCCGTATTTGGC (site GTTAGAACTTC) — the same, 0
- GTTAGAACATGGACCGGTTTTCCCGGTAATCCGTATTTGGC (site GTTAGAGCTGC) — within 0.2 log units, 0.0184
- GTTAGAACATGGACCGGTTTTCCCGGTAATCCGTATTTGGC (site GTTAGATCTGC) — higher, 0.83
- GTTAGAACATGGACCGGTTTTCCCGGTAATCCGTATTTGGC (site GTTAGCACTGC) — higher, 0.506
- GTTAGAACATGGACCGGTTTTCCCGGTAATCCGTATTTGGC (site GTTAGGACTGC) — within 0.2 log units, 0.0154
- GTTAGAACATGGACCGGTTTTCCCGGTAATCCGTATTTGGC (site GTTAGTACTGC) — the same, 0
- GTTAGAACATGGACCGGTTTTCCCGGTAATCCGTATTTGGC (site GTTATAACTGC) — higher, 1.54
- GTTAGAACATGGACCGGTTTTCCCGGTAATCCGTATTTGGC (site GTTCGAACTGC) — the same, 0
- GTTAGAACATGGACCGGTTTTCCCGGTAATCCGTATTTGGC (site GTTGGAACTGC) — higher, 0.696
- GTTAGAACATGGACCGGTTTTCCCGGTAATCCGTATTTGGC (site GTTTGAACTGC) — the same, 0
- GTTAGAACATGGACCGGTTTTCCCGGTAATCCGTATTTGGC (site TTTAGAACTGC) — the same, 0
- GTTAGAACATGGACCGGTTTTCCCGGTAATCCGTATTTGGT (site GTTAGAACTAC) — higher, 0.908
- GTTAGAACATGGACCGGTTTTCCCGGTAATCCGTATTTGGT (site GTTAGAACTCC) — within 0.2 log units, 0.0129
- GTTAGAACATGGACCGGTTTTCCCGGTAATCCGTATTTGGT (site GTTAGAACTGC) — the same, 0
- GTTAGAACATGGACCGGTTTTCCCGGTAATCCGTATTTGGT (site GTTAGAACTTC) — within 0.2 log units, 0.0194
- GTTAGACCATGGACCGGTTTTCCCGGTAATCCGTATTTGGA (site GTTAGACCTTC) — within 0.2 log units, 0.00772
- GTTAGACCATGGACCGGTTTTCCCGGTAATCCGTATTTGGC (site GTTAGAACTGC) — the same, 0
- GTTAGACCATGGACCGGTTTTCCCGGTAATCCGTATTTGGC (site GTTAGACCTGC) — the same, 0
- GTTAGACCATGGACCGGTTTTCCCGGTAATCCGTATTTGGC (site GTTAGAGCTGC) — the same, 0
- GTTAGACCATGGACCGGTTTTCCCGGTAATCCGTATTTGGC (site GTTAGATCTGC) — the same, 0
- GTTAGAGCATGGACCGGTTTTCCCGGTAATCCGTATTTGGC (site GTTAGAACTGC) — higher, 2.02
- GTTAGAGCATGGACCGGTTTTCCCGGTAATCCGTATTTGGC (site GTTAGACCTGC) — the same, 0
- GTTAGAGCATGGACCGGTTTTCCCGGTAATCCGTATTTGGC (site GTTAGAGCTGC) — higher, 2.22
- GTTAGAGCATGGACCGGTTTTCCCGGTAATCCGTATTTGGC (site GTTAGATCTGC) — higher, 1.51
- GTTAGGACATGGACCGGTTTTCCCGGTAATCCGTATTTGGC (site GTTAGAACTGC) — higher, 1.16
- GTTAGGACATGGACCGGTTTTCCCGGTAATCCGTATTTGGC (site GTTAGCACTGC) — the same, 0
- GTTAGGACATGGACCGGTTTTCCCGGTAATCCGTATTTGGC (site GTTAGGACTGC) — higher, 2.84
- GTTAGGACATGGACCGGTTTTCCCGGTAATCCGTATTTGGC (site GTTAGTACTGC) — the same, 0
- GTTATTCCATGGACCGGTTTTCCCGGTAATCCGTATTTGGT (site GTTATTCCTAC) — higher, 0.469
- GTTATTCCATGGACCGGTTTTCCCGGTAATCCGTATTTGGT (site GTTCTTCCTAC) — the same, 0
- GTTATTCCATGGACCGGTTTTCCCGGTAATCCGTATTTGGT (site GTTGTTCCTAC) — within 0.2 log units, 0.00973
- GTTATTCCATGGACCGGTTTTCCCGGTAATCCGTATTTGGT (site GTTTTTCCTAC) — the same, 0
- GTTCACGCATGGACCGGTTTTCCCGGTAATCCGTATTTGTT (site GTTCACGCTAA) — higher, 1
- GTTCATACATGGACCGGTTTTCCCGGTAATCCGTATTTGTG (site GTTCATACTCA) — higher, 0.505
- GTTCCGGCATGGACCGGTTTTCCCGGTAATCCGTATTTGCC (site GTTCCGGCTGG) — the same, 0
- GTTCGAGCATGGACCGGTTTTCCCGGTAATCCGTATTTGAA (site GTTCGAGCTTA) — higher, 0.307
- GTTCGAGCATGGACCGGTTTTCCCGGTAATCCGTATTTGAA (site GTTCGAGCTTC) — the same, 0
- GTTCGAGCATGGACCGGTTTTCCCGGTAATCCGTATTTGAA (site GTTCGAGCTTG) — the same, 0
- GTTCGAGCATGGACCGGTTTTCCCGGTAATCCGTATTTGAA (site GTTCGAGCTTT) — higher, 1.41
- GTTCGAGCATGGACCGGTTTTCCCGGTAATCCGTATTTGCT (site GTTCGAGCTAG) — higher, 1.9
- GTTCGAGCATGGACCGGTTTTCCCGGTAATCCGTATTTGCT (site GTTCGAGCTCG) — higher, 0.664
- GTTCGAGCATGGACCGGTTTTCCCGGTAATCCGTATTTGCT (site GTTCGAGCTGG) — higher, 0.928
- GTTCGAGCATGGACCGGTTTTCCCGGTAATCCGTATTTGCT (site GTTCGAGCTTG) — higher, 1.03
- GTTCGAGCATGGACCGGTTTTCCCGGTAATCCGTATTTGGA (site GTTCGAGCTTA) — higher, 0.635
- GTTCGAGCATGGACCGGTTTTCCCGGTAATCCGTATTTGGA (site GTTCGAGCTTC) — higher, 0.499
- GTTCGAGCATGGACCGGTTTTCCCGGTAATCCGTATTTGGA (site GTTCGAGCTTG) — the same, 0
- GTTCGAGCATGGACCGGTTTTCCCGGTAATCCGTATTTGGA (site GTTCGAGCTTT) — higher, 0.942
- GTTCGATCATGGACCGGTTTTCCCGGTAATCCGTATTTGCC (site GTTCGATCTGG) — higher, 1.92
- GTTCGTACATGGACCGGTTTTCCCGGTAATCCGTATTTGCA (site GTTCGTACTTG) — higher, 1.64
- GTTCGTACATGGACCGGTTTTCCCGGTAATCCGTATTTGTT (site GTTCGTACTAA) — within 0.2 log units, 0.0105
- GTTCGTGCATGGACCGGTTTTCCCGGTAATCCGTATTTGCA (site GTTCGAGCTTG) — higher, 0.585
- GTTCGTGCATGGACCGGTTTTCCCGGTAATCCGTATTTGCA (site GTTCGCGCTTG) — within 0.2 log units, 0.0038
- GTTCGTGCATGGACCGGTTTTCCCGGTAATCCGTATTTGCA (site GTTCGGGCTTG) — higher, 0.36
- GTTCGTGCATGGACCGGTTTTCCCGGTAATCCGTATTTGCA (site GTTCGTGCTTG) — higher, 1.96
- GTTGAGACATGGACCGGTTTTCCCGGTAATCCGTATTTGAC (site GTTGAGACTGT) — higher, 2.94
- GTTGCTGCATGGACCGGTTTTCCCGGTAATCCGTATTTGAG (site GTTGCTGCTCT) — higher, 0.388
- GTTGGACCATGGACCGGTTTTCCCGGTAATCCGTATTTGCC (site GTTGGACCTGG) — the same, 0
- GTTGGCCCATGGACCGGTTTTCCCGGTAATCCGTATTTGAG (site GTTGGCCCTCT) — within 0.2 log units, 0.0112
- GTTGGGACATGGACCGGTTTTCCCGGTAATCCGTATTTGGC (site GTTGGGACTGC) — higher, 1.53
- GTTGGGGCATGGACCGGTTTTCCCGGTAATCCGTATTTGCG (site GTTGGGGCTCG) — higher, 2.05
- GTTGTACCATGGACCGGTTTTCCCGGTAATCCGTATTTGGT (site GTTGTACCTAC) — the same, 0
- GTTGTACCATGGACCGGTTTTCCCGGTAATCCGTATTTGGT (site GTTGTCCCTAC) — within 0.2 log units, 0.0245
- GTTGTACCATGGACCGGTTTTCCCGGTAATCCGTATTTGGT (site GTTGTGCCTAC) — within 0.2 log units, 0.0127
- GTTGTACCATGGACCGGTTTTCCCGGTAATCCGTATTTGGT (site GTTGTTCCTAC) — the same, 0
- GTTGTGCCATGGACCGGTTTTCCCGGTAATCCGTATTTGGT (site GTTGTACCTAC) — within 0.2 log units, 0.00401
- GTTGTGCCATGGACCGGTTTTCCCGGTAATCCGTATTTGGT (site GTTGTCCCTAC) — within 0.2 log units, 0.0044
- GTTGTGCCATGGACCGGTTTTCCCGGTAATCCGTATTTGGT (site GTTGTGCCTAC) — within 0.2 log units, 0.0934
- GTTGTGCCATGGACCGGTTTTCCCGGTAATCCGTATTTGGT (site GTTGTTCCTAC) — within 0.2 log units, 0.0079
